Reference: patent US10780090B2, “Heteroaryl compounds useful as inhibitors of SUMO activating enzyme” (Millennium Pharmaceuticals, Inc., priority 2014, dated 2020)

Target: recombinant human SAE enzyme (Homo sapiens (Human), UniProt Q9UBT2)
Assay: SAE HTRF enzyme assay
Type: biochemical
Conditions: for inhibition at 0.111 µM: read-out: Percent Inhibition
How it was run: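 0.11 nM SAE incubated with 0.5 μM ATP, 0.01 μM Ubc9-GST and 0.125 μM Sumo-Flag in HEPES pH 7.5, MgCl2, GSH, BSA, ±inhibitor, 105 min at 24° C. EDTA stop; Eu-cryptate anti-Flag/XL-APC anti-GST HTRF read after 2 h. Values given as single-concentration % inhibition or IC50.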

[1] = SAE inhibition at compound concentration 0.111 μM
[2] = SAE inhibition, class symbols, legend in nM

Chain of recombinant human SAE enzyme (Q9UBT2 whole entry): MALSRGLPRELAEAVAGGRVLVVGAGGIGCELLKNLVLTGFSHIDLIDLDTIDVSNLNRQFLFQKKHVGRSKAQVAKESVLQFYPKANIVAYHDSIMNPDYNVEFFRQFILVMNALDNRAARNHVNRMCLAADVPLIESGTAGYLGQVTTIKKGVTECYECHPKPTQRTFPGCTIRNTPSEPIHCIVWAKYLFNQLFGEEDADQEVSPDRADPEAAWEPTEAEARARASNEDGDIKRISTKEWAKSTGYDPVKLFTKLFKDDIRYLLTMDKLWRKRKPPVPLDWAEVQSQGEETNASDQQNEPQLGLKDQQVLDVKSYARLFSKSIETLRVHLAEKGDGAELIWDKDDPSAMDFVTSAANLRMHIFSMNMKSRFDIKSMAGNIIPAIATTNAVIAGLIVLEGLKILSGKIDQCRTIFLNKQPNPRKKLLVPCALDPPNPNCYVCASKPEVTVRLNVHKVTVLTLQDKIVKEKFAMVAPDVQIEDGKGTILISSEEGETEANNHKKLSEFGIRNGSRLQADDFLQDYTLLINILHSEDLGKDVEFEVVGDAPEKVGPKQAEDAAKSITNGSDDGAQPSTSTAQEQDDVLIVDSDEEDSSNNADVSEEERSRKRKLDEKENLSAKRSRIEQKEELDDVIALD
Chain of recombinant human SAE enzyme (Q9UBE0 whole entry partner): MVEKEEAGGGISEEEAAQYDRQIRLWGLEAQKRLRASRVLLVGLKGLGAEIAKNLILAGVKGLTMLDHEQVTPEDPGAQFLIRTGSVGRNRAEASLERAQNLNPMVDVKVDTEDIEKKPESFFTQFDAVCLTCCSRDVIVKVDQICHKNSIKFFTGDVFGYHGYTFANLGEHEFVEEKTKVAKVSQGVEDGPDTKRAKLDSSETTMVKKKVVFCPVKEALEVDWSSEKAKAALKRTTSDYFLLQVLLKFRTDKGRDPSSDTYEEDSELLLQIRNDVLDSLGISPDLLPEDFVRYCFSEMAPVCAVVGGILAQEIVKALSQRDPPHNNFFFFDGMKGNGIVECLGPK

| Compound | Percent Inhibition (Concentration 0.111 μM) | IC50 (class symbols A/B/C) [nM] | inhibition at 0.111 µM (Concentration 0.111 μM) [%] | Percent Inhibition [1] [%] | IC50 [2] [nM] |
| --- | --- | --- | --- | --- | --- |
| Cc1oc(C(=O)c2cncnc2N[C@@H]2C[C@H](COS(N)(=O)=O)[C@@H](O)C2)cc1C1OCCc2ccccc21 (single isomer, unassigned) [I-272a, {(1R,2S,4R)-4-[(5-{4-[(1R)-3,4-dihydro-1H-isochromen-1-yl]-5-methyl-2-furoyl}pyrimidin-4-yl)amino]-2-hydroxycyclopentyl}methyl sulfamate or {(1R,2S,4R)-4-[(5-{4-[(1S)-3,4-dihydro-1H-isochromen-1-yl]-5-methyl-2-furoyl}pyrimidin-4-yl)amino]-2-hydroxycyclopentyl}methyl sulfamate] | 96 | < 10 |  |  |  |
| Cc1nn(Cc2csc(C(=O)c3cncnc3N[C@@H]3C[C@H](COS(N)(=O)=O)[C@@H](O)C3)c2)c2cnccc12 [I-160, [(1R,2S,4R)-2-hydroxy-4-{[5-({4-[(3-methyl-1H-pyrazolo[3,4-c]pyridin-1-yl)methyl]-2-thienyl}carbonyl)pyrimidin-4-yl]amino}cyclopentyl]methyl sulfamate] |  | < 10 | 92 |  |  |
| NS(=O)(=O)OC[C@H]1C[C@@H](Nc2ncncc2C(=O)c2cc(COc3ccccc3OC(F)(F)F)cs2)C[C@@H]1O [I-176, [(1R,2S,4R)-2-hydroxy-4-({5-[(4-{[2-(trifluoromethoxy)phenoxy]methyl}-2-thienyl)carbonyl]pyrimidin-4-yl}amino)cyclopentyl]methyl sulfamate] |  | 10 to 100 | 87 |  |  |
| Cc1sc(C(=O)c2cncnc2N[C@@H]2C[C@H](COS(N)(=O)=O)[C@@H](O)C2)cc1C1OCCc2oc(Cl)cc21 (single isomer, unassigned) [I-298b, [(1R,2S,4R)-4-{[5-({4-[(4R)-2-chloro-6,7-dihydro-4H-furo[3,2-c]pyran-4-yl]-5-methyl-2-thienyl}carbonyl)pyrimidin-4-yl]amino}-2-hydroxycyclopentyl]methyl sulfamate or [(1R,2S,4R)-4-{[5-({4-[(4S)-2-chloro-6,7-dihydro-4H-furo[3,2-c]pyran-4-yl]-5-methyl-2-thienyl}carbonyl)pyrimidin-4-yl]amino}-2-hydroxycyclopentyl]methyl sulfamate] |  |  |  | 98 | < 10 |
| NS(=O)(=O)OC[C@H]1C[C@@H](Nc2ncncc2C(=O)c2cc([C@@H]3OCC(F)(F)c4ccccc43)cs2)C[C@@H]1O (mixture of isomers) [I-293, [(1R,2S,4R)-4-{[5-({4-[(1R)-4,4-difluoro-3,4-dihydro-1H-isochromen-1-yl]-2-thienyl}carbonyl)pyrimidin-4-yl]amino}-2-hydroxycyclopentyl]methyl sulfamate and [(1R,2S,4R)-4-{[5-({4-[(1S)-4,4-difluoro-3,4-dihydro-1H-isochromen-1-yl]-2-thienyl}carbonyl)pyrimidin-4-yl]amino}-2-hydroxycyclopentyl]methyl sulfamate] |  |  |  | 98 | < 10 |
| Cc1sc(C(=O)c2cncnc2N[C@@H]2C[C@H](COS(N)(=O)=O)[C@@H](O)C2)cc1[C@@H]1OCCc2ccsc21 (single isomer, unassigned) [I-269b, [(1R,2S,4R)-4-{[5-({4-[(7S)-4,7-dihydro-5H-thieno[2,3-c]pyran-7-yl]-5-methyl-2-thienyl}carbonyl)pyrimidin-4-yl]amino}-2-hydroxycyclopentyl]methyl sulfamate or [(1R,2S,4R)-4-{[5-({4-[(7R)-4,7-dihydro-5H-thieno[2,3-c]pyran-7-yl]-5-methyl-2-thienyl}carbonyl)pyrimidin-4-yl]amino}-2-hydroxycyclopentyl]methyl sulfamate] | 95 | 10 to 100 |  |  |  |
| NS(=O)(=O)OC[C@H]1C[C@@H](Nc2ncncc2C(=O)c2ccc(Cc3cccc(Cl)c3)o2)C[C@@H]1O [I-93, [(1R,2S,4R)-4-({5-[5-(3-chlorobenzyl)-2-furoyl]pyrimidin-4-yl}amino)-2-hydroxycyclopentyl]methyl sulfamate] |  |  | 98 |  |  |
